Columns and labels:
human α2C receptor = human α2C receptor (Homo sapiens (Human), UniProt P18825); assay: Antagonism against adrenoreceptor α2C (luminescence, recombinant CHO cell line, noradrenaline stimulation); format: cell-based; settings: 20 nM noradrenaline
Procedure: B-1a) Antagonism Against Adrenoreceptors
Antagonism against the adrenoreceptor α1A was tested using a recombinant human α1A receptor CHO cell line which additionally also recombinantly expresses mtAeq (mitochondrial aequorin). Antagonism against the adrenoreceptor α2A was tested using a recombinant human α2A-Gα16 receptor fusion protein CHO cell line (PerkinElmer Life Sciences) which additionally also recombinantly expresses mtAeq. Antagonism against the adrenoreceptor α2B was tested using a recombinant human α2B receptor CHO cell line (PerkinElmer Life Sciences) which additionally also recombinantly expresses mtAeq. Antagonism against the adrenoreceptor α2C was tested using a recombinant human α2C receptor CHO cell line which additionally also recombinantly expresses a chimaric G protein (Gαqi3) and mtOb (mitochondrial obelin).
The cells were cultivated at 37° C. and 5% CO2 in Dulbecco's modified Eagle's Medium/NUT mix F12 with L-glutamine which additionally contains 10% (v/v) inactivated foetal calf serum, 1 mM sodium pyruvate, 0.9 mM sodium bicarbonate, 50 U/ml penicillin, 50 μg/ml streptomycin, 2.5 μg/ml amphotericin B and 1 mg/ml Geneticin. The cells were passaged with enzyme-free Hank's-based cell dissociation buffer. All cell culture reagents used were from Invitrogen (Carlsbad, USA).
Luminescence measurements were carried out on white 384-well microtitre plates. 2000 cells/well were plated in a volume of 25 μl and cultivated for one day at 30° C. and 5% CO2 in cell culture medium with coelenterazine (α2A and α2B: 5 μg/ml; α1a/c and α2C: 2.5 μg/ml). Serial dilutions of the test substances (10 μl) were added to the cells. After 5 minutes, noradrenaline was added to the cells (35 μl; final concentrations: 20 nM (α1a/c, and α2C) or 200 nM (α2A and α2B)), and the emitted light was measured for 50 seconds using a CCD (charge-coupled device) camera (Hamamatsu Corporation, Shizuoka, Japan) in a light-tight box. The test substances were tested up to a maximum concentration of […] The IC50 values were calculated from the appropriate dose-response curves.

[1] = system: diabetic (ZDFfa/fa) and healthy rats (Wistar); assay: Assay of perfusion-enhancing substances (microcirculation), laser doppler probe at the paw; format: in vivo, rat; settings: single oral dose; for MED skin temperature: minimum effective dose for significant increase of skin temperature (ttest); for MED microcirculation: minimum effective dose with significantly improved microcirculation vs placebo; for MED microcirculation / factor by which microcirculation is improved at MED compared to placebo: 30 min after administration; for factor by which microcirculation is improved at MED compared to placebo: at the MED
Text: B-2e) Assay of Perfusion-Enhancing Substances (Microcirculation)
In diabetic (ZDFfa/fa) and healthy rats (Wistar), a laser doppler probe was fastened under anaesthesia conditions (isoflurane anaesthesia) at the sole of the paw for measuring cutaneous microcirculation. The test animals were once treated orally with the test substances. During the experiment, microperfusion and temperature of the lower extremities were documented continuously. Here, a temperature-sensitive laser doppler probe (Periflux, O2C) was fastened with adhesive to the paws of the animals, allowing the measurement of microperfusion and skin temperature. The microcirculation measurement values were measured on both paws 30 min after oral administration of the test substance. […] Also stated is the MED for the significant increase of skin temperature (ttest).
Microcirculation data for adrenoreceptor α2c antagonist of Example 8 and for the comparative substance ORM12741, an AR α2c antagonist from Orion, are shown in Table 2: […]

[2] = system: conscious female Wistar rats; assay: Radiotelemetric measurement of blood pressure and heart rate of conscious rats; format: in vivo, rat
Text: B-2l) Radiotelemetric Measurement of Blood Pressure and Heart Rate of Conscious Rats
A commercially available telemetry system from Data Sciences International DSI, USA, was employed for the measurements on conscious rats described below. The system consists of 3 main components: (1) implantable transmitters (Physiotel® telemetry transmitter), (2) receivers (Physiotel® receiver), which are linked via a multiplexer (DSI Data Exchange Matrix) to a (3) data acquisition computer. The telemetry system makes it possible to continuously record blood pressure, heart rate and body motion of conscious animals in their usual habitat.
The studies were conducted on adult female Wistar rats with a body weight of >200 g. After transmitter implantation, the experimental animals were housed singly in type III Makrolon® cages. They had free access to standard feed and water. The day/night rhythm in the test laboratory was set by changing the illumination of the room.
The telemetry transmitters used (PA-C40, DSI) were surgically implanted under aseptic conditions in the experimental animals at least 14 days before the first experimental use. […]
Each of the instrumented rats living in the system was assigned a separate receiving antenna (RPC-1 Receiver, DSI). […] The signals emitted were detected online by a data acquisition system (Dataquest™ A.R.T. for Windows, DSI) and processed accordingly.
In the standard procedure, the following were measured for 10-second periods in each case: (1) systolic blood pressure (SBP), (2) diastolic blood pressure (DBP), (3) mean arterial pressure (MAP) and (4) heart rate (HR) and (5) activity (ACT). These parameters were measured over 24 hours after administration.
The acquisition of measurements was repeated under computer control at 5-minute intervals. The source data obtained as absolute values were corrected in the diagram with the currently measured barometric pressure (Ambient Pressure Reference Monitor, APR-1, DSI). […]

Sequence of human α2C receptor (P18825 whole entry): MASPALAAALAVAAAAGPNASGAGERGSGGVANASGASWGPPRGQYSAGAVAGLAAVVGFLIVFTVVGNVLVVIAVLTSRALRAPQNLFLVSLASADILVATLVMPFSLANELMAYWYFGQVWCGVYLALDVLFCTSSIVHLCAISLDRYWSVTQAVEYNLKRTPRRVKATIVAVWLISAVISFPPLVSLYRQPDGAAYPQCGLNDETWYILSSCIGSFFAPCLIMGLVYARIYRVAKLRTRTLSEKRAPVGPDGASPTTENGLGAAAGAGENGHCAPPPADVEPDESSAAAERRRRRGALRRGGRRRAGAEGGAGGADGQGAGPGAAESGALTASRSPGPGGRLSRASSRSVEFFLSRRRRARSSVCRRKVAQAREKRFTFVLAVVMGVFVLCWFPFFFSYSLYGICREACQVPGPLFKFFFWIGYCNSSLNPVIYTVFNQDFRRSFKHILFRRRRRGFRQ

SMILES	IC50 (human α2C receptor)	MED skin temperature [1]	MED microcirculation [1]	factor by which microcirculation is improved at MED compared to placebo [1]	other results
COCCNc1ccc(C(=O)N2CCC(N3CCc4ccccc4C3)CC2)cn1 [Example 1, [4-(3,4-Dihydroisoquinolin-2-(1H)-yl)piperidin-1-yl]{6-[(2-methoxyethyl)amino]pyridin-3-yl}-methanone]	22 nM	1 mg/kg	1 mg/kg	1.8 ×	–
COCCNc1ccc(C(=O)N2CCC(N3CCc4ccc(F)cc4C3)CC2)cn1 [Example 2, [4-(7-Fluoro-3,4-dihydroisoquinolin-2(1H)-yl)piperidin-1-yl]{6-[(2-methoxyethyl)amino]pyridin-3-yl}methanone]	13 nM	–	–	–	–
O=C(c1ccc(N2CCOCC2)nc1)N1CCC(N2CCc3ccccc3C2)CC1 [Example 3, [4-(3,4-Dihydroisoquinolin-2(1H)-yl)piperidin-1-yl][6-(morpholin-4-yl)pyridin-3-yl]methanone]	9 nM	–	–	–	–
O=C(c1ccc(N2CCS(=O)(=O)CC2)nc1)N1CCC(N2CCc3ccccc3C2)CC1 [Example 4, [4-(3,4-Dihydroisoquinolin-2(1H)-yl)piperidin-1-yl][6-(1,1-dioxidothiomorpholin-4-yl)pyridin-3-yl]methanone]	24 nM	0.1 mg/kg	0.1 mg/kg	2.4 ×	haemodynamic effects (blood pressure, heart rate) ([2]; conscious rats, oral administration, 24 hours telemetry): no haemodynamic effects; heart rate ([2]; oral dose of 3 and 10 mg/kg): slight transient increase in the heart rate
COC[C@H]1CCCN1c1ccc(C(=O)N2CCC(N3CCc4ccccc4C3)CC2)cn1 [Example 5, [4-(3,4-Dihydroisoquinolin-2(1H)-yl)piperidin-1-yl]{6-[(2R)-2-(methoxymethyl)pyrrolidin-1-yl]pyridin-3-yl}methanone]	65 nM	–	–	–	–
O=C(O)[C@H]1CCCN1c1ccc(C(=O)N2CCC(N3CCc4ccccc4C3)CC2)cn1 [Example 6, 1-(5-{[4-(3,4-Dihydroisoquinolin-2(1H)-yl)piperidin-1-yl]carbonyl}pyridin-2-yl)-D-proline]	27 nM	no effect	no effect	≤ 1.3 ×	–
CC[C@@H](CO)Nc1ccc(C(=O)N2CCC(N3CCc4ccccc4C3)CC2)cn1 [Example 7, [4-(3,4-Dihydroisoquinolin-2(1H)-yl)piperidin-1-yl](6-{[(2S)-1-hydroxybutan-2-yl]amino}pyridin-3-yl)methanone]	21 nM	–	–	–	–
COC1CCN(c2ccc(C(=O)N3CCC(N4CCc5cc(F)ccc5C4)CC3)cn2)C1 (centres unmarked) [Example 8, [4-(6-Fluoro-3,4-dihydroisoquinolin-2(1H)-yl)piperidin-1-yl][6-(3-methoxypyrrolidin-1-yl)pyridin-3-yl]methanone]	58 nM	–	–	–	–
COc1ccc2c(c1)CCN(C1CCN(C(=O)c3ccc(N4CCC(OC)C4)nc3)CC1)C2 (centres unmarked) [Example 9, [4-(6-Methoxy-3,4-dihydroisoquinolin-2(1H)-yl)piperidin-1-yl][6-(3-methoxypyrrolidin-1-yl)pyridin-3-yl]methanone]	11 nM	–	–	–	–
O=C(c1ccc(N2CC3(COC3)C2)nc1)N1CCC(N2CCc3ccccc3C2)CC1 [Example 10, [4-(3,4-Dihydroisoquinolin-2(1H)-yl)piperidin-1-yl][6-(2-oxa-6-azaspiro[3.3]hept-6-yl)pyridin-3-yl]methanone]	–	0.03 mg/kg	0.03 mg/kg	2.1 ×	–
CC1CN(c2ccc(C(=O)N3CCC(N4CCc5ccccc5C4)CC3)cn2)CC(C)O1 (centres unmarked) [Example 11, [4-(3,4-Dihydroisoquinolin-2(1H)-yl)piperidin-1-yl][6-(2,6-dimethylmorpholin-4-yl)pyridin-3-yl]methanone]	11 nM	–	–	–	–
CC1CN(c2ccc(C(=O)N3CCC(N4CCc5ccccc5C4)CC3)cn2)CC(C)O1 (centres unmarked) [Example 12, [4-(3,4-Dihydroisoquinolin-2(1H)-yl)piperidin-1-yl][6-(2,6-dimethylmorpholin-4-yl)pyridin-3-yl]methanone]	21 nM	–	–	–	–
CC1(C)CN(c2ccc(C(=O)N3CCC(N4CCc5ccccc5C4)CC3)cn2)CCO1 [Example 13, [4-(3,4-Dihydroisoquinolin-2(1H)-yl)piperidin-1-yl][6-(2,2-dimethylmorpholin-4-yl)pyridin-3-yl]methanone]	53 nM	–	–	–	–
O=C(c1ccc(N2CCOC(C(F)(F)F)C2)nc1)N1CCC(N2CCc3ccccc3C2)CC1 (centres unmarked) [Example 14, [4-(3,4-Dihydroisoquinolin-2(1H)-yl)piperidin-1-yl]{6-[2-(trifluoromethyl)morpholin-4-yl]pyridin-3-yl}methanone]	23 nM	–	–	–	–
O=C(c1ccc(N2CC3(C2)CS(=O)(=O)C3)nc1)N1CCC(N2CCc3ccccc3C2)CC1 [Example 15, [4-(3,4-Dihydroisoquinolin-2(1H)-yl)piperidin-1-yl][6-(2,2-dioxido-2-thia-6-azaspiro[3.3]hept-6-yl)pyridin-3-yl]methanone]	53 nM	–	–	–	–
COC[C@@]1(C)CCCN2CCc3c(oc4ccccc34)[C@@H]21 [ORM-12741, reference compound]	–	0.01 mg/kg	0.1 mg/kg	1.9 ×	blood pressure ([2]; 10 mg/kg, oral): additional reduction in blood pressure
